IC50 and inhibition data for one molecule are collected here from paper PMC6413339 (EBioMedicine, 2019).

One assay concerns the target T1, Src (Homo sapiens, UniProt P12931).
T1 construct: purchased Invitrogen PR4336E
Nature of the assay: Cell-free kinase assay (Reaction Biology, ADP-Glo). It is filed as biochemical. As for the experimental part:
(§1) Cell-free kinase activity assays were performed at Reaction Biology Corporation. Briefly, kinases were incubated with substrates, 100 μM ATP and a 3-fold serial dilution of compounds starting at 1 μM. DMSO was used as control. […] Experiments were performed in duplicates. The concentrations of kinases and substrates used in the assays are indicated on Table S1. Kinase activity was quantified using the ADP-Glo™ Kinase Assay System (Promega, Madison, WI) following the manufacturer's recommendations.

In the next assay the target is FLT3-ITD (Homo sapiens, UniProt P36888, ITD). The experiment in a line: Cell-free kinase assay, dose-response (Reaction Biology, ADP-Glo). Format: biochemical. The method, then:
as §1

Assay [1] relates to MOLM-14 (ITD, D835Y) cells. The experiment in a line: Antiproliferative activity (CellTitre-Blue, 72 h). Format: cell-based, human. The following applies: 72 h incubation, triplicates, read-out: IC50 (mean ±SD, nM) MOLM-14 (ITD, D835Y). Summed up: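 Cells seeded at 2.0 × 10^4 cells/mL, then exposed in triplicate to serial dilutions (top concentration 10 μM) for 72 h.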

Like-named read-outs stand apart in the source and are kept apart here. Some results are limits rather than exact numbers.

T1 sequence (P12931 whole entry): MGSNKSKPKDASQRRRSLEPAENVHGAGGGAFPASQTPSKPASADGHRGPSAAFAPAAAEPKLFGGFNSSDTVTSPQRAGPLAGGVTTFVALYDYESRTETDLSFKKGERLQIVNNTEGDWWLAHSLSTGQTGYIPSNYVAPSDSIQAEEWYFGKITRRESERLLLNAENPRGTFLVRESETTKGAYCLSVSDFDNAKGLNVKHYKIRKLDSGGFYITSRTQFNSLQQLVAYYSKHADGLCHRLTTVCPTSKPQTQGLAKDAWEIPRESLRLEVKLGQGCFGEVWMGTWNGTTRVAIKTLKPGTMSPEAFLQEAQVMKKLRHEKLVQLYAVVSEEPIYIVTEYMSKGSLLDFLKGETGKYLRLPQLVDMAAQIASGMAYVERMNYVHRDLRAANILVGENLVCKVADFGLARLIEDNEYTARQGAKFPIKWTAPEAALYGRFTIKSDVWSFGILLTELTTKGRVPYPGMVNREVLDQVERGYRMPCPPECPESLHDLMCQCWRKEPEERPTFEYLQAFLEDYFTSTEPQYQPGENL
Chain of FLT3-ITD (P36888 564-993, change not shown): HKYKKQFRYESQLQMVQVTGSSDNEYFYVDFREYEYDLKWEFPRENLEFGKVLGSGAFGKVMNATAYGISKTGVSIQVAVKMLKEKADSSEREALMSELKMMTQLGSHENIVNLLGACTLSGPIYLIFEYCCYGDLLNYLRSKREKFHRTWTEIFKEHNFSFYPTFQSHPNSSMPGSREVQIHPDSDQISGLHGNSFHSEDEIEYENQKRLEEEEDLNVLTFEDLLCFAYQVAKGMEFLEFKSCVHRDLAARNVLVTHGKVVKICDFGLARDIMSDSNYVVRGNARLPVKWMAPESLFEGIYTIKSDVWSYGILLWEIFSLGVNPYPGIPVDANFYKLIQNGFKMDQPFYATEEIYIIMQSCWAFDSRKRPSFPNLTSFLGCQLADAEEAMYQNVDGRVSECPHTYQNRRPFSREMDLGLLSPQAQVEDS

As a reminder, the IC50 is the concentration that inhibits the measured activity by half. One may read the inhibition as the share of the control response that was lost under treatment. Read a high inhibition as a response far below the control. In the case of `Cc1ncc(C(=O)Nc2ccc(CN3CCN(C)CC3)c(C(F)(F)F)c2)cc1C#Cc1c(N)ncc2ccc(F)cc12` [Compound 7], the IC50 on Src (Src 0.6 nM, ATP 100 μM, read-out: IC50 against Src) is 0.0126 µM; at FLT3-ITD it was 0.0125 µM; in assay [1] (listed as 7 (HSN431)) it was 16.6 ± 5.8 nM; in assay [1] (Homo sapiens, MOLM-14, 72 h), no more than 15 nM. On Src (inhibitor 500 nM, 100 μM ATP, average of duplicate), this molecule came in with an inhibition at 0.5 µM of 98%.
